# From patent EP0302626A2, “Insecticidal compounds” (IMPERIAL CHEMICAL INDUSTRIES PLC, priority 1987, dated 1989)
# “And” between values parts separate entries of the source, which are not always exact repeats. Equal entries are not always repeated. Where two headings read alike, the source gives them in different places.
# Assays:
# Format in all cases: in vivo
# [1] = system: Spodoptera exigua (lesser army worm - larvae); experiment: insecticidal mortality test, residual, cotton leaf; settings: read-out: grading of mortality, SP
# Protocol: (§1) The activity of the Product was determined using a variety of insect pests. The Product was used in the form of liquid preparations containing 500, 250 or 100 parts per million (ppm) by weight of the Product. The preparations were made by dissolving the Product in acetone and diluting the solutions with water containing 0.01% by weight of a wetting agent sold under the trade name "LlSSAPOL" NX until the liquid preparations contained the required concentration of the Product. "Lissapol" is a Registered Trade Mark.
# (§2) The test procedure adopted with regard to each pest was basically the same and comprised supporting a number of the pests on a medium which was usually a host plant or a foodstuff on which the pests feed, and treating either or both the pests and the medium with the preparations. The mortality of the pests was then assessed at periods usually varying from one to three days after the treatment.
# (§3) The results of the tests are given in Table III for each of the Products, at the rate in parts per million given in the second column as a grading of mortality designated as A, B or C wherein A indicates 80-100% mortality, B indicates 50-79% mortality and C indicates less than 50% mortality.
# (§4) In Table 111 the pest organism used is designated by a letter code and the pests species, the support medium or food, and the type and duration of test is given in Table II.
# [2] = system: Heliothis virescens (tobacco budworm - larvae); experiment: insecticidal mortality test, residual, cotton leaf; settings: read-out: grading of mortality, HV
# Protocol: as §1, §2, §3, §4
# [3] = system: Diabrotica balteata (rootworm larvae); experiment: insecticidal mortality test, residual, filter paper/maize seed; settings: read-out: grading of mortality, DB
# Protocol: as §1, §2, §3, §4
# [4] = system: Nephotettix cincticeps (green leaf hopper - nymphs); experiment: insecticidal mortality test, contact, rice plant; settings: read-out: grading of mortality, NC
# Protocol: as §1, §2, §3, §4
# Myzus persicae (aphids) = experiment: insecticidal mortality test, contact, Chinese Cabbage leaf; settings: 72 h, read-out: grading of mortality, MP
# Protocol: as §1, §2, §3, §4
# [5] = system: Blattella germanica (cockroach nymphs); experiment: insecticidal mortality test, residual, plastic pot; settings: 72 h, read-out: grading of mortality, BG
# Protocol: as §1, §2, §3, §4
# [6] = system: Blattella germanica (adult males); experiment: Blattella germanica knockdown test; settings: for KT₅₀ / KT₉₀ / mortality at 250 ppm: 250 ppm spray; for KT₅₀: time taken to knockdown 50% of test insects; for KT₅₀ / KT₉₀: Tetramethrin: mean of 3 assessments; for KT₉₀: time taken to knockdown 90% of test insects; for pest or weed control at 250 ppm / mortality at 250 ppm: Blattella germanica; for pest or weed control at 250 ppm: topical, 10 min, Tetramethrin: mean of 27 observations, read-out: % KNOCKDOWN OBSERVED 10 min; for mortality at 250 ppm: 48 h, insects held at 25°C and 65% relative humidity for 48 hours, read-out: % MORTALITY 48 hrs
# Protocol: The test compound was dissolved in acetone (2 cm³) and the solution diluted to a concentration of 250 ppm with kerosene. 1 cm³ Of this preparation was sprayed onto 10 Blattella germanica (adult males) held in a netted plastic pot in a Burkhard potter Tower. Assessment of knockdown was performed at intervals of 5 minutes up to a total of 20 minutes. On removal from the Burkhard Potter Tower, the insects were held at 25°C and 65% relative humidity for 48 hours, and an assessment of mortality performed. Each test was repeated.
# In some tests, additional knockdown assessment was performed at intervals of 1, 2, 3 and 4 minutes, and KT₅₀ and KT₉₀ values determined (the time taken, in minutes, to knockdown 50% and 90% respectively of test insects).
# [7] = system: Musca domestica (houseflies - adults); experiment: insecticidal mortality test, contact, cotton wool/sugar; settings: read-out: grading of mortality, MD
# Protocol: as §1, §2, §3, §4
# [8] = system: Tetranychus urticae (spider mites - adult); experiment: insecticidal mortality test, contact, French bean leaf; settings: for mortality at 100 ppm: Tetranychus urticae, 72 h, read-out: grading of mortality, Tua, 100 ppm, 3 days
# Protocol: as §1, §2, §3, §4
# [9] = 48 h, 100 ppm, residual, cotton leaf, test duration of 2 days (footnote +)
# [10] = 48 h, 100 ppm, contact, rice plant, test duration of 2 days (footnote +)
# [11] = 250 ppm in kerosene, 1 cm3 sprayed onto 10 adult males, tests 1 and 2 are repeats
# [12] = 72 h, 100 ppm, residual, cotton leaf, 3 days
# [13] = 72 h, 100 ppm, contact, rice plant, 3 days
Structure (SMILES),mortality at 100 ppm (Myzus persicae (aphids)),mortality at 100 ppm [5],mortality at 100 ppm [8],mortality at 100 ppm ([1]; 72 h),mortality at 100 ppm ([2]; 72 h),mortality at 100 ppm ([3]; 72 h),mortality at 100 ppm ([4]; 72 h),mortality at 100 ppm ([7]; 24 h),other results
"C#CCSCc1c(F)c(F)c(COC(=O)[C@@H]2[C@H](/C=C(\Cl)C(F)(F)F)C2(C)C)c(F)c1F (racemic) [Product XXV, 4-[(prop-2-yn-1-yl)thiomethyl]-2,3,5,6-tetra fluorobenzyl (1RS, cis)-3-(Z-2-chloro-3,3,3-trifluoroprop-1-en-1-yl)-2,2-dimethylcyclopropanecarboxylate]",80 to 100%,80 to 100%,80 to 100%,–,–,–,–,–,"mortality at 100 ppm ([1]; 48 h): 80 to 100%; mortality at 100 ppm [2, 9]: 80 to 100%; mortality at 100 ppm ([3]; 48 h): 80 to 100%; mortality at 100 ppm [4, 10]: 80 to 100%; KT₅₀ [6]: 2.5 min and 3.6 min; KT₉₀ [6]: 4.5 min and 8.3 min; pest or weed control at 250 ppm [6, 11]: 100%; mortality at 100 ppm ([7]; 72 h): 80 to 100%"
"CC#CCOCc1c(F)c(F)c(COC(=O)[C@@H]2[C@H](/C=C(\Cl)C(F)(F)F)C2(C)C)c(F)c1F (relative stereo) [Product XIX, 4-[(But-2-yn-1-yl)oxymethyl]-2,3,5,6-tetrafluorobenzyl (1RS,cis)-3-(Z-2-chloro-3,3,3-trifluoroprop-1-en-1-yl)-2,2-dimethylcyclopropanecarboxylate]",80 to 100%,80 to 100%,50 to 79%,80 to 100%,80 to 100%,80 to 100%,80 to 100%,50 to 79%,–
"CC1(C)[C@H](C(=O)OCc2c(F)c(F)c(CBr)c(F)c2F)[C@@H]1/C=C(\Cl)C(F)(F)F (relative stereo) [Product I, 4-(Bromomethyl)-2,3,5,6-tetrafluorobenzyl (1RS,cis)-3-(Z-2-chloro-3,3,3-trifluoroprop-1-en-1-yl)-2,2-dimethyl-cyclopropanecarboxylate]",–,–,< 50%,–,50 to 79%,80 to 100%,–,< 50%,–
"CC1(C)[C@H](C(=O)OCc2c(F)c(F)c(COS(C)(=O)=O)c(F)c2F)[C@@H]1/C=C(\Cl)C(F)(F)F (relative stereo) [Product IV, 4-(methanesulphonyloxymethyl)-2,3,5,6-tetrafluorobenzyl (1RS,cis)-3-(Z-2-chloro-3,3,3-trifluoroprop-1-en-1-yl)-2,2-dimethylcyclopropanecarboxylate]",80 to 100%,80 to 100%,80 to 100%,80 to 100%,80 to 100%,< 50%,80 to 100%,< 50%,–
"CC1(C)C(/C=C(\F)C(F)(F)F)C1C(=O)OCc1c(F)c(F)c(CN=[N+]=[N-])c(F)c1F (mixture of isomers) [Product XXVIII, 4-(azidomethyl)-2,3,5,6-tetrafluorobenzyl (1RS, cis/trans)-3-(Z-2,3,3,3-tetrafluoroprop-1-en-1-yl)2,2-dimethylcyclopropanecarboxylate]",80 to 100%,80 to 100%,< 50%,–,–,–,–,–,"mortality at 100 ppm ([1]; 48 h): 80 to 100%; mortality at 100 ppm [2, 9]: 80 to 100%; mortality at 100 ppm ([3]; 48 h): 80 to 100%; mortality at 100 ppm [4, 10]: 80 to 100%; % KNOCKDOWN OBSERVED 15 min ([6]; 250 ppm in kerosene, 1 cm3 sprayed onto 10 adult males, 15 min, tests 1 and 2 are repeats): 70%; % KNOCKDOWN OBSERVED 20 min ([6]; 250 ppm in kerosene, 1 cm3 sprayed onto 10 adult males, 20 min, tests 1 and 2 are repeats): 100%; KT₅₀ [6]: 6.4 min and 12.6 min; KT₉₀ [6]: 9.3 min and 18.3 min; mortality at 250 ppm ([6]; tests 1 and 2 are repeats): 100%; mortality at 100 ppm ([7]; 72 h): 80 to 100%"
"CC1(C)[C@H](C(=O)OCc2c(F)c(F)c(COC(=O)C(F)(F)F)c(F)c2F)[C@@H]1/C=C(\Cl)C(F)(F)F (relative stereo) [Product V, 4-(trifluoroacetoxymethyl)-2,3,5,6-tetrafluorobenzyl (1RS,cis)-3-(Z-2-chloro-3,3,3-trifluoroprop-1-en-1-yl)-2,2-dimethylcyclopropanecarboxylate]",80 to 100%,80 to 100%,80 to 100%,80 to 100%,80 to 100%,80 to 100%,80 to 100%,80 to 100%,–
"CC(C)=NOCc1c(F)c(F)c(COC(=O)C2C(C=C(Cl)C(F)(F)F)C2(C)C)c(F)c1F (racemic) [Product XXII, 4-[(prop-2-ylideneamino)oxymethyl]-2,3,5,6-tetrafluorobenzyl (1RS, cis)-3-(Z-2-chloro-3,3,3-trifluoroprop-1-en-1-yl-2,2-dimethylcyclopropanecarboxylate]",80 to 100%,< 50%,80 to 100%,–,–,–,–,–,"mortality at 100 ppm ([1]; 48 h): 80 to 100%; mortality at 100 ppm [2, 9]: 80 to 100%; mortality at 100 ppm ([3]; 48 h): 80 to 100%; mortality at 100 ppm [4, 10]: 80 to 100%; KT₅₀ [6]: 3.6 min and 2.5 min; KT₉₀ [6]: 8.3 min and 4.5 min; mortality at 250 ppm ([6]; tests 1 and 2 are repeats): 100%; pest or weed control at 250 ppm [6, 11]: 100%; mortality at 100 ppm ([7]; 72 h): 80 to 100%"
"CC1(C)C(C=C(Cl)C(F)(F)F)C1C(=O)OCc1c(F)c(F)c(COC=O)c(F)c1F (racemic) [Product VIII, 4-(Formyloxymethyl)-2,3,5,6-tetrafluoromethyl (1RS, cis)-3-(Z-2-chloro-3,3,3-trifluoroprop-1-en-1-yl)-2,2-dimethylcyclopropanecarboxylate]",–,–,–,80 to 100%,–,80 to 100%,–,80 to 100%,"mortality at 100 ppm [2, 12]: 80 to 100%; mortality at 100 ppm [4, 13]: 80 to 100%; grading of mortality, Tua ([8]; 100 ppm, 3 days, listed as VIII, 4320 min): A (A indicates 80-100% mortality)"
"C#CC(C)OCc1c(F)c(F)c(COC(=O)C2C(C=C(Cl)C(F)(F)F)C2(C)C)c(F)c1F (stereo not drawn) [Product XVIII, (Rs)-4-[(l-methylprop-2-yn-1-yl)oxymethyl]-2,3,5,6-tetrafluorobenzyl (1RS,cis)-3-(Z-2-chloro-3,3,3-trifluoroprop-1-en-1-yl)-2,2-dimethylcyclopropanecarboxylate]",80 to 100%,80 to 100%,< 50%,80 to 100%,–,80 to 100%,–,80 to 100%,"mortality at 100 ppm [2, 12]: 80 to 100%; mortality at 100 ppm [4, 13]: 80 to 100%"
"COC(=O)OCc1c(F)c(F)c(COC(=O)[C@@H]2[C@H](/C=C(\Cl)C(F)(F)F)C2(C)C)c(F)c1F (relative stereo) [Product VII, 4-(Methoxycarbonyloxymethyl)-2,3,5,6-tetrafluorobenzyl (1RS,cis)-3-(Z-2-chloro-3,3,3-trifluoroprop-1-en-1-yl)-2,2-dimethylcyclopropanecarboxylate]",80 to 100%,80 to 100%,80 to 100%,80 to 100%,80 to 100%,80 to 100%,80 to 100%,< 50%,–
"C#CCOCc1c(F)c(F)c(COC(=O)[C@@H]2[C@H](/C=C(\Cl)C(F)(F)F)C2(C)C)c(F)c1F (relative stereo) [Product XX, 4-[(Prop-2-yn-1-yl)oxymethyl]-2,3,5,6-tetrafluorobenzyl (1RS,cis)-3-(Z-2-chloro-3,3,3-trifluoroprop-1-en-1-yl)-2,2-dimethylcyclopropanecarboxylate]",80 to 100%,80 to 100%,80 to 100%,80 to 100%,80 to 100%,80 to 100%,80 to 100%,80 to 100%,–
